Assay results published in patent US10513523B2, “Imidazopyrazines and pyrazolopyrimidines and their use as AMPA receptor modulators” (Janssen Pharmaceutica NV, priority 2015, dated 2019).

biological target: GluA1o-γ8 (GRIA1o-CACNG8 fusion construct; TARP γ8 dependent AMPA receptor) (Homo sapiens (Human), UniProt P42261+Q8WXS5); experiment: Calcium flux assay (FLIPR), inhibition of glutamate response of GluA1o-γ8 channel; format: cell-based; conditions: HEK293 cells stably expressing GRIA1o-CACNG8 fusion; 15 μM glutamate; pIC50 = negative log of IC50 in molar; read-out: GluR1-γ8 (pIC50) (converted)
Method in brief: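 Potency is the midpoint of a four-parameter logistic fit to control-normalized FLIPR calcium responses elicited by 15 μM glutamate. Stable HEK293 cells carried a fused GluA1o-γ8 construct and were preincubated with compound and calcium dye in pH 7.4 HEPES buffer.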

Sequence of GluA1o-γ8 (GRIA1o-CACNG8 fusion construct; TARP γ8 dependent AMPA receptor) (P42261 other isoform, or with tags, fused parts or gaps): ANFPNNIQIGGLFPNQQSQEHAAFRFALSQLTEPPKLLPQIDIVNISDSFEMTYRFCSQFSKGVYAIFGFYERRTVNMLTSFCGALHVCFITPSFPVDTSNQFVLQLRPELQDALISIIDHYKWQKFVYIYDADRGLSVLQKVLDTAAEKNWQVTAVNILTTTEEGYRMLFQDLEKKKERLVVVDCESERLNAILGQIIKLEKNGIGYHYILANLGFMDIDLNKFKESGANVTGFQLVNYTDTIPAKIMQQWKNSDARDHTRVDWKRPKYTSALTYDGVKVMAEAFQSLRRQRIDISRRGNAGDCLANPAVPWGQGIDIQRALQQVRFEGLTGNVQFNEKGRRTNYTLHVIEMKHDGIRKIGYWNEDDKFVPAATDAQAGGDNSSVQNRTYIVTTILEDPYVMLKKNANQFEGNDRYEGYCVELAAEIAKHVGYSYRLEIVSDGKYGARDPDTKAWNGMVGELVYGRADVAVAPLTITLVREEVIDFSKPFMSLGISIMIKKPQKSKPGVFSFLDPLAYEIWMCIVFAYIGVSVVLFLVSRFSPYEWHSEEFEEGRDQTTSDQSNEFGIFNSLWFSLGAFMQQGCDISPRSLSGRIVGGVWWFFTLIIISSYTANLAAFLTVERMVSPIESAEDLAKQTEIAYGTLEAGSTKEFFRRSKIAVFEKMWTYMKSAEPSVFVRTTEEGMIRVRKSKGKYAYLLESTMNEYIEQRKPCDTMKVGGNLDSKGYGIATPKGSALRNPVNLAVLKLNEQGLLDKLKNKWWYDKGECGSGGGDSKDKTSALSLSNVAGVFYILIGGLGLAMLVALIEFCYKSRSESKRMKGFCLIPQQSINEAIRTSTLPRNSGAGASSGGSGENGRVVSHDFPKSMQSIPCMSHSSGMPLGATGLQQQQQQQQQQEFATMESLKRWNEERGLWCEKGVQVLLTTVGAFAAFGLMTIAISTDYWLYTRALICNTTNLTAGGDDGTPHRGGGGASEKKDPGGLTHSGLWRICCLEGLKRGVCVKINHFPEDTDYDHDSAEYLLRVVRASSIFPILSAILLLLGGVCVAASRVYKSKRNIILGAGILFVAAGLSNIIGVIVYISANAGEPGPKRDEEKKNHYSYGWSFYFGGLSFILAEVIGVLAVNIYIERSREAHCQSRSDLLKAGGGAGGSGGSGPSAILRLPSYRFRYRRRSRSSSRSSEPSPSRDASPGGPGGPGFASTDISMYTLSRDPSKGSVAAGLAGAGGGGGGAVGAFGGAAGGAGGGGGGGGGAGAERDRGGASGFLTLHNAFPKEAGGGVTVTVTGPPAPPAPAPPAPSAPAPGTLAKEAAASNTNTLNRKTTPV

| SMILES | IC50 |
| --- | --- |
| O=C1Cc2cc(-c3c(-c4ccccc4)nn4c(N5CC(F)C5)nccc34)ccc2N1 [Example 200, 5-[7-(3-Fluoroazetidin-1-yl)-2-phenyl-pyrazolo[1,5-c]pyrimidin-3-yl]indolin-2-one] | 3.16 nM |
| O=C1Cc2cc(-c3c(Cc4ccccc4)nc4c(N5CCOCC5)nccn34)ccc2N1 [Example 20, 5-(2-Benzyl-8-morpholino-imidazo[1,2-a]pyrazin-3-yl)indolin-2-one] | 1 nM |
| O=c1[nH]c2ccc(-c3c(-c4ccc(F)cc4)nc4c(N5CC6(COC6)C5)nccn34)cc2[nH]1 [Example 26, 5-[2-(4-Fluorophenyl)-8-(6-oxa-2-azaspiro[3.3]heptan-2-yl)imidazo[1,2-a]pyrazin-3-yl]-1,3-dihydrobenzimidazol-2-one] | 5.01 nM |
| O=C(c1ccccc1)c1nc2c(N3CCOCC3)nccn2c1-c1ccc2[nH]c(=O)oc2c1 [Example 156, 6-(2-Benzoyl-8-morpholino-imidazo[1,2-a]pyrazin-3-yl)-3H-1,3-benzoxazol-2-one] | 1.26 nM |
| CC(=O)N1CCN(c2nccn3c(-c4ccc5c(c4)CC(=O)N5)c(C(=O)c4ccccc4)nc23)CC1 [Example 158, 5-[8-(4-Acetylpiperazin-1-yl)-2-benzoyl-imidazo[1,2-a]pyrazin-3-yl]indolin-2-one] | 5.01 nM |
| O=S1(=O)Cc2cc(-c3c(-c4ccc(F)cc4)nc4c(N5CCC(O)CC5)nccn34)ccc2N1 [Example 119, 1-[3-(2,2-Dioxo-1,3-dihydro-2,1-benzothiazol-5-yl)-2-(4-fluorophenyl)imidazo[1,2-a]pyrazin-8-yl]piperidin-4-ol] | 3.16 nM |
| CCCNC(=O)c1nc2c(N3CCOCC3)nccn2c1-c1ccc(O)cc1 [Example 148, 3-(4-Hydroxyphenyl)-8-morpholino-N-propyl-imidazo[1,2-a]pyrazine-2-carboxamide] | 631 nM |
| Cc1cnc(N2CCOCC2)n2nc(-c3ccccc3)c(-c3ccc4[nH]ncc4c3)c12 [Example 212, 4-[3-(1H-Indazol-5-yl)-4-methyl-2-phenyl-pyrazolo[1,5-c]pyrimidin-7-yl]morpholine] | 0.0794 nM |
| CN(C)c1nccn2c(-c3ccc4c(c3)CC(=O)N4)c(C(=O)c3ccccc3)nc12 [Example 152, 5-[2-Benzoyl-8-(dimethylamino)imidazo[1,2-a]pyrazin-3-yl]indolin-2-one] | 3.98 nM |
| CC(C)(C)OC(=O)N1CCN(c2ncc(Br)n3c(-c4ccc5c(c4)CC(=O)N5)c(Cc4ccccc4)nc23)CC1 [Example 112, tert-Butyl 4-(2-benzyl-5-bromo-3-(2-oxoindolin-5-yl)imidazo[1,2-a]pyrazin-8-yl)piperazine-1-carboxylate] | 0.794 nM |
| COC1CN(c2nccc3c(-c4ccc5c(c4)CC(=O)N5)c(C4CCCC4)nn23)C1 [Example 195, 5-[2-Cyclopentyl-7-(3-methoxyazetidin-1-yl)pyrazolo[1,5-c]pyrimidin-3-yl]indolin-2-one] | 316 nM |
| O=C(Nc1ccccn1)c1nc2c(N3CCOCC3)nccn2c1-c1ccc2[nH]c(=O)[nH]c2c1 [Example 221, 8-Morpholino-3-(2-oxo-1,3-dihydrobenzimidazol-5-yl)-N-(2-pyridyl)imidazo[1,2-a]pyrazine-2-carboxamide] | 31.6 nM |
| CC(C)(C)c1nc2c(N3CCC(O)CC3)nccn2c1-c1ccc2c(c1)CC(=O)N2 [Example 88, 5-[2-tert-Butyl-8-(4-hydroxy-1-piperidyl)imidazo[1,2-a]pyrazin-3-yl]indolin-2-one] | 126 nM |
| CN1CCN(c2nccn3c(-c4ccc5c(c4)CC(=O)N5)c(-c4ccc(F)cc4)nc23)CC1=O [Example 110, 5-(2-(4-fluorophenyl)-8-(4-methyl-3-oxopiperazin-1-yl)imidazo[1,2-a]pyrazin-3-yl)indolin-2-one] | 1.26 nM |
| O=C(NCc1ccccc1)c1nc2c(N3CCOCC3)nccn2c1-c1ccc2[nH]c(=O)[nH]c2c1 [Example 139, N-Benzyl-8-morpholino-3-(2-oxo-1,3-dihydrobenzimidazol-5-yl)imidazo[1,2-a]pyrazine-2-carboxamide] | 25.1 nM |
| O=C1Cc2cc(-c3c(-c4ccc(F)cc4)nc4c(N5CCC(F)CC5)nccn34)ccc2N1 [Example 74, 5-[2-(4-Fluorophenyl)-8-(4-fluoro-1-piperidyl)imidazo[1,2-a]pyrazin-3-yl]indolin-2-one] | 0.0794 nM |
| CNc1nccn2c(-c3ccc4[nH]c(=O)[nH]c4c3)c(-c3ccc(F)cc3)nc12 [Example 104, 5-[2-(4-Fluorophenyl)-8-(methylamino)imidazo[1,2-a]pyrazin-3-yl]-1,3-dihydrobenzimidazol-2-one] | 6.31 nM |
| CS(=O)(=O)C1CN(c2nccn3c(-c4ccc5c(c4)CC(=O)N5)c(-c4ccc(F)cc4)nc23)C1 [Example 62, 5-[2-(4-Fluorophenyl)-8-(3-methylsulfonylazetidin-1-yl)imidazo[1,2-a]pyrazin-3-yl]indolin-2-one] | 10 nM |

| SMILES | IC50 |
| --- | --- |
| CC(=O)N1CCN(c2nccn3c(-c4ccc5[nH]ncc5c4)c(-c4ccc(C#N)cc4)nc23)CC1 [Example 103, 4-[8-(4-Acetylpiperazin-1-yl)-3-(1H-indazol-5-yl)imidazo[1,2-a]pyrazin-2-yl]benzonitrile] | 0.794 nM |
| O=C(Nc1ccccc1)c1nc2c(N3CCOCC3)nccn2c1-c1ccc2[nH]c(=O)[nH]c2c1 [Example 140, 8-Morpholino-3-(2-oxo-1,3-dihydrobenzimidazol-5-yl)-N-phenyl-imidazo[1,2-a]pyrazine-2-carboxamide] | 20 nM |
| O=C1Cc2cc(-c3c(-c4ccc(F)cc4)nc4c(N5CC[C@@H](O)[C@H](F)C5)nccn34)ccc2N1 (relative stereo) [Example 70, (trans)-5-[8-(3-Fluoro-4-hydroxy-1-piperidyl)-2-(4-fluorophenyl)imidazo[1,2-a]pyrazin-3-yl]indolin-2-one] | 0.158 nM |
| N#Cc1ccc(-c2nc3c(N4CCNC(=O)C4)nccn3c2-c2ccc3[nH]c(=O)[nH]c3c2)cc1 [Example 211, 4-[3-(2-Oxo-1,3-dihydrobenzimidazol-5-yl)-8-(3-oxopiperazin-1-yl)imidazo[1,2-a]pyrazin-2-yl]benzonitrile] | 3.98 nM |
| O=C(Nc1ccncc1)c1nc2c(N3CCOCC3)nccn2c1-c1ccc2[nH]c(=O)[nH]c2c1 [Example 147, 8-Morpholino-3-(2-oxo-1,3-dihydrobenzimidazol-5-yl)-N-(4-pyridyl)imidazo[1,2-a]pyrazine-2-carboxamide] | 501 nM |
| O=C1Cc2cc(-c3c(-c4ccc(F)cc4)nc4c(N5CCO[C@@H](C(F)(F)F)C5)nccn34)ccc2N1 (single isomer, unassigned) [Example 48, (R*)-5-[2-(4-Fluorophenyl)-8-[2-(trifluoromethyl)morpholin-4-yl]imidazo[1,2-a]pyrazin-3-yl]indolin-2-one] | 12.6 nM |
| CC1COCCN1c1nccn2c(-c3ccc4c(c3)CC(=O)N4)c(-c3ccc(F)cc3)nc12 (centres unmarked) [Example 39, 5-[2-(4-Fluorophenyl)-8-(3-methylmorpholin-4-yl)imidazo[1,2-a]pyrazin-3-yl]indolin-2-one] | 0.794 nM |
| COC1CN(c2nccn3c(-c4ccc5c(c4)CC(=O)N5)c(-c4ccccc4)nc23)C1 [Example 78, 5-[8-(3-Methoxyazetidin-1-yl)-2-phenyl-imidazo[1,2-a]pyrazin-3-yl]indolin-2-one] | 2 nM |
| Oc1ccc(-c2c(-c3ccccc3F)nc3c(N4CCOCC4)nccn23)cc1 [Example 84, 4-[2-(2-Fluorophenyl)-8-morpholino-imidazo[1,2-a]pyrazin-3-yl]phenol] | 63.1 nM |
| CC(C)c1nn2cnc(C(F)(F)F)cc2c1-c1ccc2[nH]c(=O)sc2c1 [Example 231, 6-[2-Isopropyl-5-(trifluoromethyl)pyrazolo[1,5-c]pyrimidin-3-yl]-3H-1,3-benzothiazol-2-one] | 63.1 nM |
| CC(=O)N[C@H]1CCN(c2nccn3c(-c4ccc5[nH]c(=O)[nH]c5c4)c(-c4ccc(F)cc4)nc23)C1 [Example 98, N-[(3S)-1-[2-(4-Fluorophenyl)-3-(2-oxo-1,3-dihydrobenzimidazol-5-yl)imidazo[1,2-a]pyrazin-8-yl]pyrrolidin-3-yl]acetamide] | 2.51 nM |
| COC1CCN(c2nccc3c(-c4ccc5[nH]c(=O)sc5c4)c(C(C)C)nn23)CC1 [Example 241, 6-[2-Isopropyl-7-(4-methoxy-1-piperidyl)pyrazolo[1,5-c]pyrimidin-3-yl]-3H-1,3-benzothiazol-2-one] | 2.51 nM |
| O=C1Cc2cc(-c3c(C(=O)c4ccccc4)nc4c(N5CCOCC5)nccn34)ccc2N1 [Example 153, 5-(2-Benzoyl-8-morpholino-imidazo[1,2-a]pyrazin-3-yl)indolin-2-one] | 0.316 nM |
| CC(=O)N1CCN(c2nccn3c(-c4ccc5[nH]ncc5c4)c(Cc4ccccc4)nc23)CC1 [Example 18, 1-[4-[2-Benzyl-3-(1H-indazol-5-yl)imidazo[1,2-a]pyrazin-8-yl]piperazin-1-yl]ethanone] | 0.794 nM |
| N#Cc1ccc(-c2nc3c(N4CCNC(=O)C4)nccn3c2-c2ccc3[nH]ncc3c2)cc1 [Example 209, 4-[3-(1H-Indazol-5-yl)-8-(3-oxopiperazin-1-yl)imidazo[1,2-a]pyrazin-2-yl]benzonitrile] | 2 nM |
| CC(=O)N1CCN(c2nccn3c(-c4ccc5[nH]c(=O)[nH]c5c4)c(-c4ccc(C#N)cc4)nc23)CC1 [Example 106, 4-[8-(4-Acetylpiperazin-1-yl)-3-(2-oxo-1,3-dihydrobenzimidazol-5-yl)imidazo[1,2-a]pyrazin-2-yl]benzonitrile] | 5.01 nM |
| COC1CN(c2nccc3c(-c4ccc5c(c4)CC(=O)N5)c(-c4ccccc4)nn23)C1 [Example 191, 5-[7-(3-Methoxyazetidin-1-yl)-2-phenyl-pyrazolo[1,5-c]pyrimidin-3-yl]indolin-2-one] | 2.51 nM |
